Test results published in patent US20110251281A1, “Composite Material Comprising High-Molecular-Weight Matrix and Low-Molecular-Weight Organic Compound and Process For Producing Same” (NATIONAL INSTITUTE FOR MATERIALS SCIENCE, priority 2008, published 2011).

Key:
[1] = Composite formation of AlGltn/TSC matrix containing amino acid derivative after immersion in water; type: physicochemical; details: 100 mM amino acid derivative, 20 mM TSC, water at 4° C. for one day
Method: High-molecular-weight matrices formed from alkali-treated gelatin (AlGltn; derived from pig bone) and TSC (citric acid derivative), in which an amino acid derivative was contained, were prepared. By immersing in water, DMSO was replaced by water and the amino acid was precipitated. The behavior of the high-molecular-weight matrices after the precipitation was observed by each type and concentration of the amino acid.
400 μl of a DMSO solution containing 15 w/v % AlGltn and 10% lactic acid was added with an amino acid derivative to give 100 mM in a 2 ml tube. The mixture was agitated and degassed. 100 μl of a 10% lactic acid-containing DMSO was added with TSC at 20 mM (4.84 mg) and agitated. The solution made by addition of the amino acid derivative to the AlGltn/10% lactic acid-containing DMSO solution, agitation, and degasification, was added with the TSC/10% lactic acid-containing DMSO solution. The mixture was agitated for 30 seconds and then degassed for 30 seconds. After leaving still for one day, the resulting high-molecular-weight matrix was taken out and immersed in water at 4° C. for one day. The gel was taken out and its behavior was observed.

[2] = Am80 release from alkali-treated collagen composite materials in PBS, HPLC; type: physicochemical; details: PBS pH7.4, 37° C., in one day
Method: The high-molecular-weight matrices containing the low-molecular-weight organic compound prepared in 2-1 mentioned above were dried in a desiccator and then heated in an oven at 80° C. for 10 min. These composite materials were used as samples for HPLC.
The thus produced high-molecular-weight matrices were each transferred in a 250 mL polyethylene container, and 200 mL of PBS (pH7.4) was added thereto. These were heated in an incubator at 37° C. The supernatant thereof was sampled in a time course manner, and 50 μL each was assayed by HPLC.
In the HPLC method, the Nacalai Tesque COSMOSIL Packed Column (Size: 4.6 I.D.×150 mm; Type: 5C18-AR II ATERS) was used as the column, and a 5% HOAc/CH3CN=35/65 (v/v) aqueous solution was used as the eluent. The flow rate was 1.00 mL/min, and the column temperature was 40.0° C. The detection was conducted by UV-visible spectroscopy.
The elusion amount was calculated based on a calibration curve that had been formed in advance. Three kinds of drug/PBS (pH7.4) solutions were prepared within a concentration range from 1.14 μM to 569 μM, and assayed by HPLC. The condition for this assay was the same as the above. […]
In the HPLC method, the Am80 elusion amount was calculated under the same conditions as for the above-mentioned method.

## CC(=O)NC(Cc1c[nH]c2ccccc12)C(N)=O (stereo not shown) [AcTrpNH2]
[1]
  Composite formation: Absent

## CC(=O)N[C@@H](Cc1ccc(O)cc1)C(N)=O [AcTyrNH2]
[1]
  Composite formation: Absent

## CC1(C)CCC(C)(C)c2cc(NC(=O)c3ccc(C(=O)O)cc3)ccc21 [Am80, Tamibarotene]
[2]
  Am80 released: 49%

## CC[C@H](C)[C@H](NC(=O)OCC1c2ccccc2-c2ccccc21)C(=O)O [FmocIleOH]
[1]
  Composite formation: Present

## O=C(N[C@@H](Cc1ccccc1)C(=O)O)OCC1c2ccccc2-c2ccccc21 [FmocPheOH]
[1]
  Composite formation: Present

## CC(C)(C)OC[C@H](NC(=O)OCC1c2ccccc2-c2ccccc21)C(=O)O [FmocSer(tBu)OH]
[1]
  Composite formation: Present

## O=C(N[C@@H](Cc1c[nH]c2ccccc12)C(=O)O)OCC1c2ccccc2-c2ccccc21 [FmocTrpOH]
[1]
  Composite formation: Present
